{
  "source": "patent US4999424A",
  "about": "“GAR transformylase inhibitor” (The Pennsylvania State University, priority 1988, dated 1991)",
  "key": {"GAR TFase (L1210)": {"molecular_target": "T1, GAR TFase (L1210) (Mus musculus, UniProt Q64737)", "T1 construct": "GAR TFase activity is the C-terminal domain of trifunctional Gart", "T1 sequence (Q64737 2-1010)": "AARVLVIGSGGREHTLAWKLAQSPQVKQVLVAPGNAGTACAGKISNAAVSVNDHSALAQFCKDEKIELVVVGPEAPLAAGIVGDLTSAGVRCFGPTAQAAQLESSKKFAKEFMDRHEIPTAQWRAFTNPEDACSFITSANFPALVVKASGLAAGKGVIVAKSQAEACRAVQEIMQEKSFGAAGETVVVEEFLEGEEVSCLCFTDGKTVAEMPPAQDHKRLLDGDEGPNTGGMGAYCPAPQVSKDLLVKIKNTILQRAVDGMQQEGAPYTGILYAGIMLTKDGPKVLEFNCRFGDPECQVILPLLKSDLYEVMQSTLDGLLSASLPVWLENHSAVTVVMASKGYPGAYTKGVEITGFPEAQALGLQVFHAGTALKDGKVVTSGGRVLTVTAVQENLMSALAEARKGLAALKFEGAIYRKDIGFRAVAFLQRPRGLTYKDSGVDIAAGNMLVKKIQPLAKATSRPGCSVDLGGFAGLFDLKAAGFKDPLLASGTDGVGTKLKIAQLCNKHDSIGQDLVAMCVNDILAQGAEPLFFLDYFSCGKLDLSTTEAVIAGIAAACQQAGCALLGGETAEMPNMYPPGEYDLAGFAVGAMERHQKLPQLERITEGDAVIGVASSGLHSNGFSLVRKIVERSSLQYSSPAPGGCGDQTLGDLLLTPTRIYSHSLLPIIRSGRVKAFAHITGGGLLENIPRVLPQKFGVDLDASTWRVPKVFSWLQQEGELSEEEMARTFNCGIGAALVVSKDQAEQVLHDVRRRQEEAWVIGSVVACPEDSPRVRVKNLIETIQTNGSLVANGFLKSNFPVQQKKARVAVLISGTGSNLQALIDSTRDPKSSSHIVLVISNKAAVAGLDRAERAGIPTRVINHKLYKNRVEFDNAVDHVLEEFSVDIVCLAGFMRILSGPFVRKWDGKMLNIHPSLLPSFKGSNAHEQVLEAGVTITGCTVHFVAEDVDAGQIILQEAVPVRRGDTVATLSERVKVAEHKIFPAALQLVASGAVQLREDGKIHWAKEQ", "test": "L1210 GAR TFase inhibition", "type": "biochemical", "conditions": "for Mode of inhibition: L1210 GAR TFase", "method": "All assays were carried out by following the increase of 5,8-dideazafolate absorbence at 295 nm in buffered medium at 26° C. To initiate the reaction, enzyme (1 nM final concentration) was added to a mixture of saturating substrates and variable amounts of inhibitor. […] See, Morrison, Trends Biochem. Sc., 7, 102 (1982) and Morrison, et al., Adv. Enzymology, Relat. Areas Mol. Biol., 57, 201-301 (1987).\n(§1) The specificity of beta-TGDDF for GAR TFase from species other than E. coli was assayed in a general manner by measuring the activity of GAR TFase at a concentration of 1 nM from avian, HeLa, and L121? sources in the presence of 20 nM beta-TGDDF.\nThis test, was conducted using the same [I]/[E]ratios as stated previously.\n(§2) E. coli GAR TFase was prepared and purified as described below. L1210 and HeLa GAR TFase were purified according to published procedures. AICAR TFase was prepared according to published procedures."}, "GAR TFase (HeLa O)": {"molecular_target": "T2, GAR TFase (HeLa O) (Homo sapiens, UniProt P22102)", "T2 construct": "GAR TFase activity is the C-terminal domain of trifunctional GART", "T2 sequence (P22102 2-1010)": "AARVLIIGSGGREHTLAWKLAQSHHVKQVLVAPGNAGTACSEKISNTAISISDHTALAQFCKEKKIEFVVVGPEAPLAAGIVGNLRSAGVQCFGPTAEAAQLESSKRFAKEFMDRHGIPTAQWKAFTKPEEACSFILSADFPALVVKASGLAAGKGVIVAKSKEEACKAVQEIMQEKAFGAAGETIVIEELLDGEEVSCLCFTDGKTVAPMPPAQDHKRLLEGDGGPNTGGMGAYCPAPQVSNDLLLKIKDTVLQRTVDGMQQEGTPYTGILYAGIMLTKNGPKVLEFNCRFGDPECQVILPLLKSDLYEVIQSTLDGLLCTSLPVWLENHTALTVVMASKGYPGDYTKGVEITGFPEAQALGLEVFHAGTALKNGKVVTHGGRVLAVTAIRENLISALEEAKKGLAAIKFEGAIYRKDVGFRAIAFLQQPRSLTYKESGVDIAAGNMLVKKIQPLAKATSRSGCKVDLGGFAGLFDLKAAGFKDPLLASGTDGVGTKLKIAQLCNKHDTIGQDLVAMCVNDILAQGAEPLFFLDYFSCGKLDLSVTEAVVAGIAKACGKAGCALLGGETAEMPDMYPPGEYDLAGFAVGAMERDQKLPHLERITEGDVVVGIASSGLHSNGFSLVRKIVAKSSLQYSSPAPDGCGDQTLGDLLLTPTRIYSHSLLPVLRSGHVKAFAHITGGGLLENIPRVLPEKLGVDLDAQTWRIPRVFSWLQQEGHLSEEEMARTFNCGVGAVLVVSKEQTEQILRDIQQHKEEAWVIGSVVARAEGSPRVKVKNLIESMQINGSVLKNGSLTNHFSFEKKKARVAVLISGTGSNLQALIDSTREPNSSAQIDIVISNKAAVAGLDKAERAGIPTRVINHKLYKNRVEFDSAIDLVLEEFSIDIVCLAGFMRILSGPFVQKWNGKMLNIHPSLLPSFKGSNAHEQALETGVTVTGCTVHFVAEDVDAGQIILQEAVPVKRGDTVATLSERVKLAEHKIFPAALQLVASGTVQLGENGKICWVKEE", "test": "HeLa O GAR TFase inhibition", "type": "biochemical", "conditions": "for Mode of inhibition: HeLa O GAR TFase", "method": "All assays were carried out by following the increase of 5,8-dideazafolate absorbence at 295 nm in buffered medium at 26° C. To initiate the reaction, enzyme (1 nM final concentration) was added to a mixture of saturating substrates and variable amounts of inhibitor. A characteristic family of curves was obtained, showing slow, tight-binding inhibition. See, Morrison, Trends Biochem. Sc., 7, 102 (1982) and Morrison, et al., Adv. Enzymology, Relat. Areas Mol. Biol., 57, 201-301 (1987).\nas §1\nTable II illustrates the specificity of beta-TGDDF for GAR TFase in comparison with other reduced-folate utilizing enzymes. This test, was conducted using the same [I]/[E]ratios as stated previously.\nas §2"}},
  "data": [
    {"smiles": "Nc1nc2ccc(CN(C(=O)CSCC(=O)N[C@@H]3O[C@H](COP(=O)(O)O)[C@@H](O)[C@H]3O)c3ccc(C(=O)N[C@@H](CCC(=O)O)C(=O)O)cc3)cc2c(=O)[nH]1", "note": "[beta-TGDDF, N^10-[5'-phosphoribosyl-1'-β-amino-carbonylmethyl-1-thioacetyl]-5,8-dideazafolate]", "values": [
      {"measurement": "Extent of inhibition", "setting": "GAR TFase (L1210); 20 nM beta-TGDDF, 1 nM enzyme", "value": "inhibited by roughly the same magnitude"},
      {"measurement": "Mode of inhibition", "setting": "GAR TFase (L1210)", "value": "inhibition of a slow, tight binding nature"},
      {"measurement": "Mode of inhibition", "setting": "GAR TFase (L1210); listed as Beta-TGDDF", "value": "slow, tight-binding inhibitor"},
      {"measurement": "Extent of inhibition", "setting": "GAR TFase (HeLa O); 20 nM beta-TGDDF, 1 nM enzyme", "value": "inhibited by roughly the same magnitude"},
      {"measurement": "Mode of inhibition", "setting": "GAR TFase (HeLa O)", "value": "inhibition of a slow, tight binding nature"},
      {"measurement": "Mode of inhibition", "setting": "GAR TFase (HeLa O); listed as Beta-TGDDF", "value": "slow, tight-binding inhibitor"}
    ]}
  ]
}
